Test results: patent US10681909B2, “Herbicidal triazoles” (FMC Corporation, priority 2014, dated 2020)

Experiments:
Assay in all cases: Test E preemergence
Conditions in all cases: scale 0 to 100
kochia = format: in vivo, Kochia scoparia
Source text: (§1) Seeds of plant species selected from corn (Zea mays), soybean (Glycine max), lambsquarters (Chenopodium album), poinsettia, wild (wild poinsettia, Euphorbia heterophylla), pigweed, palmer (palmer pigweed, Amaranthus palmeri), waterhemp (common waterhemp, Amaranthus rudis), surinam grass (Brachiaria decumbens), crabgrass, large (large crabgrass, Digitaria sanguinalis), crabgrass, Brazilian (Brazilian crabgrass, Digitaria horizontalis), panicum, fall (fall panicum, Panicum dichotomiflorum), foxtail, giant (giant foxtail, Setaria faberii), foxtail, green (green foxtail, Setaria viridis), goosegrass (Eleusine indica), johnsongrass (Sorghum halepense), ragweed (common ragweed, Ambrosia elatior), barnyardgrass (Echinochloa crus-galli), sandbur (southern sandbur, Cenchrus echinatus), arrowleaf sida (Sida rhombifolia), ryegrass, Italian (Italian ryegrass, Lolium multiflorum), dayflower, VA (Virginia dayflower, Commelina virginica), field bindweed (Convolvulus arvensis), cocklebur (common cocklebur, Xanthium strumarium), morningglory (Ipomoea coccinea), nightshade (eastern black nightshade, Solanum ptycanthum), kochia (Kochia scoparia), nutsedge, yellow (yellow nutsedge, Cyperus esculentus), smartweed (ladysthumb smartweed, Polygonum persicaria), velvetleaf (Abutilon theophrasti), horseweed (Conyza canadensis), and beggarticks (hairy beggarticks, Bidens pilosa), were planted into a silt loam soil and treated preemergence with test chemicals formulated in a non-phytotoxic solvent mixture which included a surfactant.
(§2) At the same time, plants from these crop and weed species and also waterhemp_RES1, (ALS & Triazine resistant common waterhemp, Amaranthus rudis), and waterhemp_RES2, (ALS & HPPD resistant common waterhemp, Amaranthus rudis) were planted in pots containing Sunshine Redi-Earth® planting medium comprising spaghnum peat moss, vermiculite, starter nutrients and dolomitic limestone were treated with postemergence applications of test chemicals formulated in the same manner. Plants ranged in height from 2 to 18 cm for postemergence treatments (1- to 4-leaf stage). Treated plants and controls were maintained in a greenhouse for 14 to 21 d, after which time all species were compared to controls and visually evaluated. Plant response ratings, summarized in Table E, are based on a scale of 0 to 100 where 0 is no effect and 100 is complete control. A dash (-) response means no test result.

waterhemp = format: in vivo, Amaranthus rudis
Source text: as §1, §2

johnsongrass = format: in vivo, Sorghum halepense
Source text: as §1, §2

ragweed = format: in vivo, Ambrosia elatior
Source text: as §1, §2

pigweed, palmer = format: in vivo, Amaranthus palmeri
Source text: as §1, §2

corn = format: in vivo, Zea mays
Source text: as §1, §2

field bindweed = format: in vivo, Convolvulus arvensis
Source text: as §1, §2

arrowleaf sida = format: in vivo, Sida rhombifolia
Source text: as §1, §2

CCCc1nc(-c2ccc(F)cc2)nn1Cc1ccnc(C(F)(F)F)c1 [Compound 6, 4-[[3-(4-fluorophenyl)-5-propyl-1H-1,2,4-triazol-1-yl]methyl]-2-(trifluoromethyl)pyridine]
Plant response rating (kochia; 16 g ai/ha): 60 | Plant response rating (kochia; 31 g ai/ha): 80 | Plant response rating (kochia; 62 g ai/ha): 80 | Plant response rating (kochia; 125 g ai/ha): 85 | Plant response rating (kochia; 250 g ai/ha): 100 | Plant response rating (waterhemp; 31 g ai/ha): 80 | Plant response rating (waterhemp; 62 g ai/ha): 100 | Plant response rating (waterhemp; 125 g ai/ha): 100 | Plant response rating (waterhemp; 250 g ai/ha): 100 | Plant response rating (johnsongrass; 31 g ai/ha): 40 | Plant response rating (johnsongrass; 62 g ai/ha): 50 | Plant response rating (johnsongrass; 125 g ai/ha): 80 | Plant response rating (johnsongrass; 250 g ai/ha): 100 | Plant response rating (ragweed; 16 g ai/ha): 10 | Plant response rating (ragweed; 31 g ai/ha): 20 | Plant response rating (ragweed; 62 g ai/ha): 20 | Plant response rating (ragweed; 125 g ai/ha): 50 | Plant response rating (ragweed; 250 g ai/ha): 90 | Plant response rating (pigweed, palmer; 16 g ai/ha): 50 | Plant response rating (pigweed, palmer; 31 g ai/ha): 75 | Plant response rating (pigweed, palmer; 62 g ai/ha): 90 | Plant response rating (pigweed, palmer; 125 g ai/ha): 100 | Plant response rating (pigweed, palmer; 250 g ai/ha): 100 | Plant response rating (corn; 16 g ai/ha): 0 | Plant response rating (corn; 31 g ai/ha): 15 | Plant response rating (corn; 62 g ai/ha): 30 | Plant response rating (corn; 125 g ai/ha): 50 | Plant response rating (corn; 250 g ai/ha): 60 | Plant response rating (field bindweed; 16 g ai/ha): 10 | Plant response rating (field bindweed; 31 g ai/ha): 10 | Plant response rating (field bindweed; 62 g ai/ha): 30 | Plant response rating (field bindweed; 125 g ai/ha): 50 | Plant response rating (field bindweed; 250 g ai/ha): 70 | Plant response rating (arrowleaf sida; 16 g ai/ha): 0 | Plant response rating (arrowleaf sida; 31 g ai/ha): 0 | Plant response rating (arrowleaf sida; 62 g ai/ha): 10 | Plant response rating (arrowleaf sida; 125 g ai/ha): 30 | Plant response rating (arrowleaf sida; 250 g ai/ha): 70

CCOc1nc(-c2ccc(F)cc2)nn1Cc1ccnc(C(F)(F)F)c1 [Compound 8, 4-[[5-ethoxy-3-(4-fluorophenyl)-1H-1,2,4-triazol-1-yl]methyl]-2-(trifluoromethyl)pyridine]
Plant response rating (kochia; 62 g ai/ha): 100 | Plant response rating (kochia; 125 g ai/ha): 100 | Plant response rating (waterhemp; 62 g ai/ha): 100 | Plant response rating (waterhemp; 125 g ai/ha): 100 | Plant response rating (johnsongrass; 62 g ai/ha): 65 | Plant response rating (johnsongrass; 125 g ai/ha): 100 | Plant response rating (ragweed; 62 g ai/ha): 80 | Plant response rating (ragweed; 125 g ai/ha): 90 | Plant response rating (pigweed, palmer; 62 g ai/ha): 100 | Plant response rating (pigweed, palmer; 125 g ai/ha): 100 | Plant response rating (corn; 62 g ai/ha): 25 | Plant response rating (corn; 125 g ai/ha): 65 | Plant response rating (field bindweed; 62 g ai/ha): 70 | Plant response rating (field bindweed; 125 g ai/ha): 95 | Plant response rating (arrowleaf sida; 62 g ai/ha): 65 | Plant response rating (arrowleaf sida; 125 g ai/ha): 98
